Measured values taken from patent US12076401B2, “Benzamide and active compound compositions and methods of use” (TRANSLATIONAL DRUG DEVELOPMENT, LLC, priority 2015, dated 2024).
“And” between values parts separate entries of the source, which are not always exact repeats. Equal values may be shown once. Read-outs that look alike come from different tables or passages of the source.

Experiments:
[1] = cited from earlier work
[2] = system: CT-26; test: CT-26 murine colon tumor volume growth; format: in vivo; conditions: 150.00 mg/kg PO QD to end + Isotype Control 0.05 mg/kg IP QDx1, in mm³
Experimental: • Group 1 Isotype Control+Compound ID #24 Vehicle Control • Group 2 Isotype Control+Compound ID #24 • Group 3 Anti-m4-1BB 0.05 mg/kg • Group 4 Anti-m4-1BB 0.10 mg/kg • Group 5 Anti-m4-1BB 0.05 mg/kg+Compound ID #24

[3] = system: MC-38; test: MC-38 murine colon tumor volume growth; format: in vivo; conditions: 150.00 mg/kg PO QD to end, in mm³
Experimental: • Group 1 Isotype Control 5.00 mg/kg+Compound ID #24 Vehicle • Group 3 Compound ID #24 150.00 mg/kg • Group 4 anti-mGITR 5.00 mg/kg • Group 6 anti-mGITR 5.00 mg/kg+Compound ID #24 150.00 mg/kg

[4] = system: U266; test: CellTiter-Glo cell viability, U266 (Myeloma); format: cell-based
Experimental: Compound ID #24 (a compound of formula (I)) and Compound ID #26 (a compound of formula (II)) were tested for the inhibition of cancer cell proliferation. Cell viability in the presence of varying concentrations of Compound ID #24 and Compound ID #26 at different time points was used to assess cytotoxicity and the effect of the compounds on cell proliferation. The data clearly show the surprising and unexpected increased anti-cancer activity associated with Compound ID #24 compared to Compound ID #26.
Cell Viability Assay—Cell viability was measured by the CellTiter-Glo® cell viability assay Promega (Madison, Wis.). The CellTiter-Glo® Luminescent Cell Viability Assay is a homogeneous method to determine the number of viable cells in culture based on quantitation of the ATP present, which signals the presence of metabolically active cells. Following treatment, CellTiter-Glo® is added to treatment wells and incubated at 37° C. luminescence values were measured at using a Molecular Devices Spectramax microplate reader.
Single Agent Studies—Cells were grown to 70% confluency, trypsinized, counted, and seeded in 96 well flat-bottom plates at a final concentration of 2.5×10^3-5×10^3 cells/well (Day 0). Cells were allowed to incubate in growth media for 24 hours. […] Viable cell numbers are quantified by the CellTiter-Glo® cell viability assay as described above. […]

[5] = system: MM1.S human myeloma cells; test: Human MM1.S myeloma xenograft, single agent screening; format: in vivo; conditions: female athymic nude mice; 100 mg/kg daily for 19 days, oral gavage
From the text: Body weights and tumor measurements were collected twice weekly.

[6] = Pharmacokinetic studies, plasma of healthy mice; format: in vivo; conditions: mouse; for Half-life: 1.0 mg/kg IV; for AUC0-∞: 5.0 mg/kg PO; for AUC: plasma, 5 mg/kg oral (PO)
Experimental: Plasma samples were collected from healthy mice and analyzed for levels of compound ID #24, ID #25, and ID #26 and reported in Table 6. In brief, compounds were individually and accurately weighed out to produce a stock solution in Dimethyl-sulfoxide (DMSO) at a concentration of 2 mg/mL and stored at −20° C. From the stock solution, a working stock was prepared by diluting it in Methanol-Water 50:50 (v/v) at 20 μg/mL for calibration curve preparation and stored at 4° C. Standards used for quantitation and quality control samples (QC's) were prepared on the same day of sample processing using blank plasma obtained from non-treated mice. For each analyte, standards were prepared through serial dilution of the working stock at concentrations of 0.1, 0.5, 1.0, 10, 50, 100, 500 and 1000 ng/mL; QC's were prepared at intermediate concentrations of 0.75, 7.5, 75 and 750 ng/mL. Plasma samples were stored at −80° C. until ready for analysis and then placed on ice for thawing. An aliquot of 20 μL for samples, standards and QC's, were transferred into a 96-well extraction plate according to a pre-defined layout. Appropriate volume of Methanol-Formic Acid 99.9-0.1 containing internal standard (Verapamil at 25 ng/mL) was added to each well and samples were extracted under vacuum. Eluent was then transferred into a LCMS plate for analysis using a suitable column for separation and MRM detection. Concentration of analytes was calculated based on the calibration curve and analyzed for pharmacokinetic parameters by using Non-compartmental analysis (NCA) using WinNonlin Phoenix software. Parameters such as Cmax, Tmax, half-life, AUC(0-last), AUC(0-∞), volume of distribution (Vss) and clearance (Cl/F) were reported.
The analogs were tested for pharmacokinetic analysis in the mouse with doses of 1 mg/kg for intravenous (IV) route and 5 mg/kg for oral (PO) route. […] Overall exposure following IV dose also favored compound ID #24 with AUC0-∞ 1488.1 hr*ng/mL whereas compound ID #25 and ID #26 were 329.1 and 1193.7 hr*ng/mL, respectively.

[7] = system: intratumoral CD8 T-cells and natural killer cells; test: Intratumoral immune cells in tumor bearing mice; format: in vivo
[8] = system: cancer cell models; conditions: cited from earlier work

In the case of Nc1ncn([C@@H]2O[C@H](CO)[C@@H](O)[C@H]2O)c(=O)n1 [Azacitidine, 4-amino-1-β-D-ribofuranozyl-s-triazin-2(1H)-one], the Solubility ([1]; acetone, ethanol and methyl ketone) is given as “insoluble”, the Solubility ([1]; dimethylsulfoxide (DMSO)) is given as “soluble” and the Solubility ([1]; ethanol/water (50/50), propylene glycol and polyethylene glycol) is given as “slightly soluble”. For the same compound, the Solubility ([1]; water, water-saturated octanol, 5% dextrose in water, N-methyl-2-pyrrolidone, normal saline and 5% Tween 80 in water) was “sparingly soluble”.

For O=C(NO)c1ccc(Nc2nc3ccccc3n2CC2CCCCC2)cc1 [Compound ID #24, 4-(1-(cyclohexylmethyl)-1H-benzo[d]imidazol-2-ylamino)-N-hydroxybenzamide], the “Tumor volume, Mean” value ([2]; Day 1) was 122.0, the “Tumor volume, Median” value ([2]; Day 1) was 113.8 and the “Tumor volume, individual animals” value ([2]; Day 1) was 106 and 85 and 156 and 149 and 114. The “Tumor volume, Mean” value ([2]; Day 5) was 165.5, the “Tumor volume, Median” value ([2]; Day 5) was 144.8 and the “Tumor volume, individual animals” value ([2]; Day 5) was 131 and 73 and 299 and 158. The “Tumor volume, Mean” value ([2]; Day 8) was 215.2, the “Tumor volume, Median” value ([2]; Day 8) was 208.7 and the “Tumor volume, individual animals” value ([2]; Day 8) was 176 and 65 and 378 and 242. The “Tumor volume, Mean” value ([2]; Day 9) was 241.8, the “Tumor volume, Median” value ([2]; Day 9) was 245.2 and the “Tumor volume, individual animals” value ([2]; Day 9) was 198 and 65 and 412 and 292. The “Tumor volume, Mean” value ([2]; Day 12) was 307.4, the “Tumor volume, Median” value ([2]; Day 12) was 285.7 and the “Tumor volume, individual animals” value ([2]; Day 12) was 212 and 68 and 590 and 359. The “Tumor volume, Mean” value ([2]; Day 14) was 382.7, the “Tumor volume, Median” value ([2]; Day 14) was 352.6 and the “Tumor volume, individual animals” value ([2]; Day 14) was 254 and 67 and 758 and 452. For the same compound, the “Tumor volume, Mean” value ([3]; Day 1) was 94.5, the “Tumor volume, Median” value ([3]; Day 1) was 92.2 and the “Tumor volume, individual animals” value ([3]; Day 1) was 68 and 81 and 103 and 128 and 92. For the same compound, the “Tumor volume, Mean” value ([3]; Day 6) was 141.8, the “Tumor volume, Median” value ([3]; Day 6) was 137.6 and the “Tumor volume, individual animals” value ([3]; Day 6) was 72 and 92 and 138 and 231 and 176. The “Tumor volume, Mean” value ([3]; Day 9) was 154.8, the “Tumor volume, Median” value ([3]; Day 9) was 148.0 and the “Tumor volume, individual animals” value ([3]; Day 9) was 83 and 121 and 148 and 240 and 182. The “Tumor volume, Mean” value ([3]; Day 12) was 187.8, the “Tumor volume, Median” value ([3]; Day 12) was 190.0 and the “Tumor volume, individual animals” value ([3]; Day 12) was 123 and 158 and 222 and 248. The “Tumor volume, Mean” value ([3]; Day 15) was 235.9, the “Tumor volume, Median” value ([3]; Day 15) was 251.8 and the “Tumor volume, individual animals” value ([3]; Day 15) was 135 and 213 and 290 and 305. The “Tumor volume, Mean” value ([3]; Day 19) was 285.2, the “Tumor volume, Median” value ([3]; Day 19) was 289.3 and the “Tumor volume, individual animals” value ([3]; Day 19) was 178 and 289 and 388. The “Tumor volume, Mean” value ([3]; Day 22) was 389.1, the “Tumor volume, Median” value ([3]; Day 22) was 397.8 and the “Tumor volume, individual animals” value ([3]; Day 22) was 244 and 398 and 526. The “Tumor volume, Mean” value ([3]; Day 26) was 566.5, the “Tumor volume, Median” value ([3]; Day 26) was 540.0 and the “Tumor volume, individual animals” value ([3]; Day 26) was 370 and 540 and 789. For the same compound, the “Tumor volume, Mean” value ([3]; Day 29) was 714.8, the “Tumor volume, Median” value ([3]; Day 29) was 646.1 and the “Tumor volume, individual animals” value ([3]; Day 29) was 495 and 646 and 1,003. For the same compound, the “Improvement ID#24 over ID#26 Fold Change” value [4] was 3.50, the “anticancer activity (tumor volume)” value [5] was “significantly superior anticancer activity when compared to either Compound ID #25 or Compound ID #26” and the Half-life [6] was 3.70 h. The “AUC0-∞” value [6] was 3974.82 ng·h/mL, the AUC [6] was 3970 ng·h/mL and the “numbers of intratumoral CD8 T-cells and natural killer cells” value [7] was “increased numbers of intratumoral CD8 T-cells and natural killer cells”.

For O=C(NO)c1ccc(Nc2nc3ccccc3n2C2CCCCC2)cc1 [Compound ID #25, 4-(1-cyclohexyl-1H-benzo[d]imidazol-2-ylamino)-N-hydroxybenzamide], the Half-life [6] was 1.20 h, the “AUC0-∞” value [6] was 1277.26 ng·h/mL and the AUC [6] was 1280 ng·h/mL.

O=C(NO)c1ccc(Nc2nc3ccccc3n2C2CCCCCC2)cc1 [Compound ID #26, 4-(1-cycloheptyl-1H-benzo[d]imidazol-2-ylamino)-N-hydroxybenzamide] showed an AUC [6] of 1650 ng·h/mL.

For Nc1ncn([C@H]2C[C@H](O)[C@@H](CO)O2)c(=O)n1 [Decitabine, 4-amino-1-(2-deoxy-β-D-erythro-pentofuranosyl)-1,3,5-triazin-2(1H)one], the Solubility ([1]; dimethylsulfoxide (DMSO)) is listed as “soluble”, the Solubility ([1]; ethanol/water (50/50), methanol/water (50/50) and methanol) is listed as “slightly soluble” and the Solubility ([1]; water) is listed as “sparingly soluble”. For the same compound, the “cell cycle, clonogenic survival and growth in cells” value ([8]; Palii et al. 2008) was “causes G2 arrest, reduces clonogenic survival, and inhibits growth in cells” and the “effect on growth and apoptosis of cancer cell models” value ([8]; through re-expression of silenced genes) was “suppression of growth and apoptosis”.
